Read-outs that look alike come from different tables or passages of the source. One block for each molecule: values may come before it.
How the values were obtained:
[1] = target: T1, CYP2C9 (Homo sapiens, UniProt P11712); conditions: Human liver microsomes, cited from earlier work
T1 construct: respectively, were mixed with human liver microsomes; tissue In Vitro Technologies (Noble Park North, VIC, Australia); host or cells: human liver microsomes

[2] = target: CYP3A4 (Homo sapiens, UniProt P08684); conditions: Human liver microsomes, cited from earlier work
[3] = system: CYP2C9; experiment: Western blot of rat liver tissue, CYP2C9 protein expression; assay type: in vivo; conditions: liver of hypertensive rats; comparison between all groups; p > 0.05
Excerpt: The immunoreactive bands were detected by chemiluminescence.

[4] = Pharmacokinetics of LOS and EXP3174 in the hypertension rat model (LC-MS); assay type: in vivo, Wistar rats; conditions: hypertensive rats (L-NAME); for AUC(0-inf) / AUC(0-t) / Cmax / MRT / Tmax / half-life: Wistar, rat, plasma, po, 10 mg/kg/day
Description: All samples were centrifuged at 3,000 rpm for 10 min, and the upper plasma was collected for Liquid Chromatography Mass Spectrometry (LC-MS) analysis. The LOS and EXP3174 in rat serum were quantitatively determined by a validated LC-MS method. The LC-MS system contained a Q/Exactive Quadrupole/Electrostatic Field Track Well High Resolution Mass Spectrometer (Thermo Fisher Scientific, Waltham, MA, United States) and a Dionex Ultimate 3,000 High-pressure liquid chromatography (Dionex, Subsidiary, CA, United States) system equipped with an electro-spray ionization source. […] The mobile phase included 0.1% formic acid aqueous solution (C) and acetonitrile (D) at a flow rate of 0.3 ml/min. The proportion of phase B in the mobile phase was adjusted from 40 to 5% at 0-2 min, 5% at 2-4 min, 40% at 4-5 min. The parameters of mass spectrometry for each analyte were shown in Supplementary Figure S1 . The collected data were analyzed through Xcalibur 4.1 software. The serum drug concentration data in each sample were obtained by calculation. The pharmacokinetic parameters corresponding to each rat were calculated using the “non-compartmental model” of the “PK solution 2.0TM (Summit Research Services, United States)” pharmacokinetic software. The half-life (t 1/2 ), peak drug concentration (C max), peak time (T max), the area under the plasma concentration-time curve (AUC) from time zero to the time of the last measurable plasma concentration (AUC 0-t ), AUC from time zero to infinity (AUC 0-∞ ), mean residence time (MRT), clearance (CL), apparent volume of distribution (V d ), and relative bioavailability (Frel) were calculated.

[5] = system: hypertension rat model established by L-NAME; experiment: Antihypertensive efficacy (tail artery blood pressure) in L-NAME hypertension rat model; assay type: in vivo, Wistar rats
Description: A total of 48 Wistar rats were treated with L-NAME (60 mg/kg·d^-1) intragastrically for 4 weeks ([[…] al., 2003]; [[…] et al., 2002]; [Ahad et al., 2020a]). Systolic blood pressure (SBP) ≥140 mmHg was considered to be a successful hypertension model and was used to maintain L-NAME treatment until animal death. The blood pressure measurement method was performed as described in previous literature studies and the blood pressure of each rat was determined by the average of 5 measurements by a non-invasive rat tail sphygmomanometer (BP-2006A, Beijing Softron Biotechnology Co., Ltd.) ([Gillis et al., 2020]; [Dias et al., 2021]). This experimental protocol was approved by the Animal Care and Use Committee of Shanghai University of Traditional Chinese Medicine. A total of 36 hypertensive rats and 6 normal rats were included in this experiment. […] A total of 6 normal rats were assigned to a blank group without any treatment. Following the treatment of the rats for 2 weeks, the blood pressure of their tail artery was measured.

[6] = Pharmacokinetics of LOS and EXP3174 in non-hypertensive Wistar rats (LC-MS); assay type: in vivo; conditions: Wistar rats without L-NAME
Description: All groups were treated for 2 weeks and the blood collection time and methods of serum management were the same as those mentioned above. The LOS and EXP3174 in rat serum were quantitatively determined by a validated LC-MS method. The LC-MS system contained a Q/Exactive Quadrupole/Electrostatic Field Track Well High Resolution Mass Spectrometer (Thermo Fisher Scientific, Waltham, MA, United States) and a Dionex Ultimate 3,000 High-pressure liquid chromatography (Dionex, Subsidiary, CA, United States) system equipped with an electro-spray ionization source. […] The mobile phase included 0.1% formic acid aqueous solution (C) and acetonitrile (D) at a flow rate of 0.3 ml/min. The proportion of phase B in the mobile phase was adjusted from 40 to 5% at 0–2 min, 5% at 2–4 min, 40% at 4–5 min. The parameters of mass spectrometry for each analyte were shown in Supplementary Figure S1 . The collected data were analyzed through Xcalibur 4.1 software. The serum drug concentration data in each sample were obtained by calculation. The pharmacokinetic parameters corresponding to each rat were calculated using the “non-compartmental model” of the “PK solution 2.0TM (Summit Research Services, United States)” pharmacokinetic software. The half-life (t 1/2 ), peak drug concentration (C max), peak time (T max), the area under the plasma concentration-time curve (AUC) from time zero to the time of the last measurable plasma concentration (AUC 0-t ), AUC from time zero to infinity (AUC 0-∞ ), mean residence time (MRT), clearance (CL), apparent volume of distribution (V d ), and relative bioavailability (Frel) were calculated.

[7] = system: hypertension rat model established with L-NAME; design: method as in Ahad et al., 2020b; conditions: within 2 h following 10 mg kg^−1 LOS; rat model after 2 weeks L-NAME; ref Ahad et al., 2020b; cited from earlier work
[8] = cited from earlier work
[9] = LOS 10 mg/kg/d ig + SMI 2 ml/kg/d tail vein (SMI-L+LOS group)
[10] = LOS 10 mg/kg/d ig + SMI 4 ml/kg/d tail vein (SMI-M+LOS group)
[11] = LOS 10 mg/kg/d ig + SMI 6 ml/kg/d tail vein (SMI-H+LOS group)
[12] = LOS 10 mg/kg/d ig alone (LOS group)
[13] = vs model group, 2 weeks treatment, SMI 6 ml/kg/d tail vein (SMI-H), LOS 10 mg/kg/d intragastric
[14] = LOS 10 mg/kg/d ig + SMI 6 ml/kg/d tail vein (BLANK + SMI-H+LOS group)
[15] = LOS 10 mg/kg/d ig alone (BLANK + LOS group)
[16] = rat, serum, po, LOS 10 mg/kg/d ig alone (BLANK + LOS group)
[17] = 4 weeks of L-NAME 60 mg/kg/d intragastric, model group
[18] = 6 weeks of continuous L-NAME, model group

Chain of CYP3A4 (P08684 whole entry): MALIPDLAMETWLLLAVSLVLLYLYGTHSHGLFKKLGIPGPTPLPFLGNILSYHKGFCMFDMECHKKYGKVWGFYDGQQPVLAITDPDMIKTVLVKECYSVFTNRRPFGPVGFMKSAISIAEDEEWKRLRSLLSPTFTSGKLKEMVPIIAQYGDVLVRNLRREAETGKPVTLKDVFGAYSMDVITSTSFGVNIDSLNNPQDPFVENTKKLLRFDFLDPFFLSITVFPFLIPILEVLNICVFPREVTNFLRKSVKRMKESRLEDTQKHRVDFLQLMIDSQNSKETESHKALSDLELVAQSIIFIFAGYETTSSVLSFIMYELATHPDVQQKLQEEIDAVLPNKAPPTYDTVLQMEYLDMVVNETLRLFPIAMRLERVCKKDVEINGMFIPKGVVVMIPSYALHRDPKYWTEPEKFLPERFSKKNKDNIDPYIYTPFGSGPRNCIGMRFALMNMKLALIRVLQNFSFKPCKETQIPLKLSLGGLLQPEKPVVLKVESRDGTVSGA
T1 sequence (P11712 whole entry): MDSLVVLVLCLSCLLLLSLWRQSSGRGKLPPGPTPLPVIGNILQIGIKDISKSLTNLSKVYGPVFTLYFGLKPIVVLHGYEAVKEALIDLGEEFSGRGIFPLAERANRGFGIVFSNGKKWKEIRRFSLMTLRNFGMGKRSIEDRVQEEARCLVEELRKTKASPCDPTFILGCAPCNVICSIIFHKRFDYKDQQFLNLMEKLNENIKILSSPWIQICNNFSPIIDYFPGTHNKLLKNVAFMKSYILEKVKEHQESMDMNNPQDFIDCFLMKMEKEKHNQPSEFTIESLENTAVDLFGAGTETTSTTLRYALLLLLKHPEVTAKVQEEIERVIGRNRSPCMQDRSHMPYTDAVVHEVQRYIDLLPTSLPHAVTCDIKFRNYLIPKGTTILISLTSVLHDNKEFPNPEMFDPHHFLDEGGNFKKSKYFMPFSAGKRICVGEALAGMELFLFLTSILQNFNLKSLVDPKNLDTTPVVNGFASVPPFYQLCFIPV

SMILES: CC(C)=CCC[C@](C)(O[C@@H]1O[C@H](CO[C@@H]2O[C@H](CO)[C@@H](O)[C@H](O)[C@H]2O)[C@@H](O)[C@H](O)[C@H]1O)[C@H]1CC[C@]2(C)[C@@H]1[C@H](O)C[C@@H]1[C@@]3(C)CC[C@H](O[C@@H]4O[C@H](CO)[C@@H](O)[C@H](O)[C@H]4O[C@@H]4O[C@H](CO)[C@@H](O)[C@H](O)[C@H]4O)C(C)(C)[C@@H]3CC[C@]12C [Ginsenoside Rb1]
- Effects on CYP2C9 ([1]; ref Hao et al. (2008)): Inhibition
- Effects on CYP2C9 ([1]; ref He and Edeki, (2004)): Inhibition
- Effects on CYP3A4 ([2]; ref Hao et al. (2008)): Inhibition
- Effects on CYP3A4 ([2]; ref He and Edeki, (2004)): Inhibition

SMILES: CC(C)=CCC[C@](C)(O[C@@H]1O[C@H](CO)[C@@H](O)[C@H](O)[C@H]1O)[C@H]1CC[C@]2(C)[C@@H]1[C@H](O)C[C@@H]1[C@@]3(C)CC[C@H](O)C(C)(C)[C@@H]3[C@@H](O[C@@H]3O[C@H](CO)[C@@H](O)[C@H](O)[C@H]3O)C[C@]12C [Rg1, Ginsenoside Rg1]
- Effects on CYP2C9 ([1]; ref Hao et al. (2008)): Inhibition
- Effects on CYP3A4 ([2]; ref Hao et al. (2008)): Inhibition

SMILES: CC(C)=CCC[C@](C)(O[C@@H]1O[C@H](CO)[C@@H](O)[C@H](O)[C@H]1O)[C@H]1CC[C@]2(C)[C@@H]1[C@H](O)C[C@@H]1[C@@]3(C)CC[C@H](O)C(C)(C)[C@@H]3[C@@H](O[C@@H]3O[C@H](CO)[C@@H](O)[C@H](O)[C@H]3O[C@@H]3O[C@@H](C)[C@H](O)[C@@H](O)[C@H]3O)C[C@]12C [Re, Ginsenoside Re]
- Effects on CYP2C9 ([1]; ref Hao et al. (2008)): Inhibition
- Effects on CYP3A4 ([2]; ref Hao et al. (2008)): Inhibition

SMILES: COc1cc2c(c(OC)c1OC)-c1c(cc(OC)c(OC)c1OC)C[C@](C)(O)[C@@H](C)C2 [schizandrin]
- Effects on CYP3A4 ([2]; ref Cao et al. (2009)): Inhibition

- CYP2C9 expression levels [3]: no significant differences
- AUC(0-inf) [4, 9]: 1.21 µg·h/mL
- AUC(0-t) [4, 9]: 1.11 µg·h/mL
- Cmax [4, 9]: 0.125 ± 0.0536 µg/mL
- MRT [4, 9]: 8.54 ± 1.8 h
- Tmax [4, 9]: 2.2 ± 0.84 h
- half-life [4, 9]: 6.74 ± 0.64 h
- AUC(0-inf) [4, 10]: 1.43 µg·h/mL
- AUC(0-t) [4, 10]: 1.25 µg·h/mL
- Cmax [4, 10]: 0.132 ± 0.035 µg/mL
- MRT [4, 10]: 11.3 ± 2.22 h
- Tmax [4, 10]: 1.5 ± 0.55 h
- half-life [4, 10]: 8.41 ± 1.43 h
- AUC(0-inf) [4, 11]: 1.42 µg·h/mL
- AUC(0-t) [4, 11]: 1.24 µg·h/mL
- Cmax [4, 11]: 0.156 ± 0.0641 µg/mL
- MRT [4, 11]: 12.1 ± 1.02 h
- Tmax [4, 11]: 2.33 ± 0.52 h
- half-life [4, 11]: 9.92 ± 0.96 h
- AUC(0-inf) [4, 12]: 0.841 ± 0.232 µg·h/mL
- AUC(0-t) [4, 12]: 0.787 ± 0.213 µg·h/mL
- Cmax [4, 12]: 0.112 ± 0.0417 µg/mL
- MRT [4, 12]: 8.18 ± 0.89 h
- Tmax [4, 12]: 2 ± 0.89 h
- half-life [4, 12]: 6.19 ± 0.43 h
- CL [4, 9]: 27,497.47 ± 14,702.73 ml/h/kg
- Vd [4, 9]: 264,405.76 ± 142,122.69 ml/kg
- CL [4, 10]: 17,964.40 ± 3,185.66 ml/h/kg
- Vd [4, 10]: 217,016.60 ± 45,076.20 ml/kg
- CL [4, 11]: 19,127.96 ± 5,549.27 ml/h/kg
- Vd [4, 11]: 277,463.55 ± 98,140.99 ml/kg
- CL [4, 12]: 32,042.39 ± 10,551.59 ml/h/kg
- Vd [4, 12]: 282,441.65 ± 73,729.85 ml/kg
- increase of AUC 0-t compared with LOS group ([4]; SMI-H + LOS group (SMI 6 ml/kg/d)): 58.1%
- CL [6, 14]: 5,327.27 ± 1,010.94 ml/h/kg
- Vd [6, 14]: 67,493.75 ± 17,745.97 ml/kg
- CL [6, 15]: 10,392.48 ± 1,296.50 ml/h/kg
- Vd [6, 15]: 90,573.23 ± 13,394.06 ml/kg
- AUC(0-inf) [6, 16]: 0.975 ± 0.121 µg·h/mL
- AUC(0-t) [6, 16]: 0.911 ± 0.115 µg·h/mL
- Cmax [6, 16]: 0.108 ± 0.00626 µg/mL
- MRT [6, 16]: 8.6 ± 0.54 h
- Tmax [6, 16]: 1.67 ± 0.52 h
- half-life [6, 16]: 6.03 ± 0.19 h
SMILES: CCCCc1nc(Cl)c(CO)n1Cc1ccc(-c2ccccc2-c2nn[nH]n2)cc1 [LOS, losartan potassium]
- decrease in DBP [5, 13]: 12.14%
- decrease in MAP [5, 13]: 11.92%
- decrease in SBP [5, 13]: 6.32%
- decrease in SBP [7]: 14.7%
- increase of AUC 0-t of LOS ([8]; with Ginkgo leaf tablets, ref Dong et al., 2018): 70%
- increase of AUC 0-t of LOS ([8]; with Glimepirea, ref Chen et al., 2015): 11.18%
- increase of AUC of LOS ([8]; with licochalcon A, ref Choi et al., 2013): 33.38%

SMILES: COC(=O)[C@@H](N)CCCNC(N)=N[N+](=O)[O-] [L-NAME, N (omega)-nitro-L-arginine methyl ester]
- increase in DBP [5, 17]: 34.83 ± 8.82 mmHg
- increase in MAP [5, 17]: 36.00 ± 6.10 mmHg
- increase in SBP [5, 17]: 37.83 ± 8.52 mmHg
- average increase in DBP [5, 18]: 42.33 ± 15.34 mmHg
- average increase in MAP [5, 18]: 46.00 ± 13.11 mmHg
- average increase in SBP [5, 18]: 50.50 ± 6.09 mmHg

Reference: PMC9065348 (Frontiers in Pharmacology, 2022)
